Reference: US8119647B2, “Fused pyrimidineone compounds as TRPV3 modulators” (Glenmark Pharmaceuticals S.A., priority 2008, dated 2012)
Like-named read-outs stand apart in the source and are kept apart here.

Molecular target: T1, Human TRPV3 (Homo sapiens, UniProt Q8NET8)
T1 construct: expressed in transfected cells; host or cells: CHO cells (G-418 selection)
T1 sequence (Q8NET8 1-790): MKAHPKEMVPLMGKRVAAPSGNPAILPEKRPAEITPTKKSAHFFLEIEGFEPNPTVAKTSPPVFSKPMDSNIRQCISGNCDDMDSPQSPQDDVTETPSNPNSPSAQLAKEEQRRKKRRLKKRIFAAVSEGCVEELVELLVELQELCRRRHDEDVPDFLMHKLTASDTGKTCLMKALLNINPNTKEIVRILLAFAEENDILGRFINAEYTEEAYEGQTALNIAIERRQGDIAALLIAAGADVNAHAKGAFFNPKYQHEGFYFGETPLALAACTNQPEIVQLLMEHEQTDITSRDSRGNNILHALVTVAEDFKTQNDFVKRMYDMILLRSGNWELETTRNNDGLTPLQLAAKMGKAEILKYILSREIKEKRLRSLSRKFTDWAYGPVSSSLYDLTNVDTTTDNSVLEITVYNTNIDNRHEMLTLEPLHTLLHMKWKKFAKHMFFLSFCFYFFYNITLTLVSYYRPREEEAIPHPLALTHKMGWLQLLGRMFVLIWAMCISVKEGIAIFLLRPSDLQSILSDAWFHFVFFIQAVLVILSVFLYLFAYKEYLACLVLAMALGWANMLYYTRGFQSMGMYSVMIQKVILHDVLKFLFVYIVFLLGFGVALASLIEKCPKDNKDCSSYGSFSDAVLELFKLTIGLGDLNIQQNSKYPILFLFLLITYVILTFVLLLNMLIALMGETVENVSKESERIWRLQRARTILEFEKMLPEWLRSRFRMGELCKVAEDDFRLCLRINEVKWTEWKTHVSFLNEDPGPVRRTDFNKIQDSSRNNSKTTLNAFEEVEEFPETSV
Test: Screening for TRPV3 antagonist using the 45Calcium uptake assay (inhibition of 2-APB induced cellular uptake of radioactive calcium)
Format: cell-based
Conditions: for inhibition at 1 µM / Percentage inhibition at 1.0 μM: 1.0 μM test compound; for inhibition at 1 µM: read-out: Percentage inhibition at 1.0 μM; for inhibition at 10 µM: read-out: Percentage inhibition at 10.0 μM; for IC50: class symbols
From the text: The illustrative examples of the present invention are screened for TRPV3 activity according to a modified procedure described in Tóth, A., Kedei, N., Wang, Y. and Blumberg, P. M. Life Sciences (2003), 73, 487-498. The screening of the compounds can be carried out by other methods and procedures known to a person skilled in the art. Such screening methods may be found in (a) Hu, H.-Z. et al. J. Biol. Chem. (2004), 279, 35741-35747; (b) Smith, G. D. et al. Nature (2002), 418, 186-190; (c) Peier, A. M. et al. Science (2002), 296, 2046-2049.
Screening for TRPV3 Antagonist Using the ^45Calcium Uptake Assay:
The inhibition of TRPV3 receptor activation was followed as inhibition of 2-aminoethoxydiphenylborate (2-APB) induced cellular uptake of radioactive calcium. Test compounds were dissolved in dimethyl sulfoxide (DMSO) to prepare 20 mM stock solution and then diluted using plain medium with DMEM/F-12 containing 1.8 mM CaCl2 to get desired concentration. Final concentration of DMSO in the reaction was 0.5% (v/v). Human TRPV3 expressing CHO cells were grown in DMEM/F-12 medium with 10% FBS, 1% penicillin-streptomycin solution, 400 μg/ml of G-418. Cells were seeded 24 h prior to the assay in 96 well plates so as to get ˜50,000 cells per well on the day of experiment. Cells were treated with test compounds for 10 minutes followed by addition of 2-APB at a final concentration of 500 μM and 5 μCi/ml ^45Ca^+2 for 4 minutes. Cells were washed and lysed using buffer containing 1% Triton X-100, 0.1% deoxycholate and 0.1% SDS. Radioactivity in the lysate was measured in Packardt Top count after addition of liquid scintillant. Concentration response curves were plotted as a % of maximal response obtained in the absence of test antagonist. IC50 value was calculated from concentration response curve by nonlinear regression analysis using GraphPad PRISM software.
Percentage inhibition at concentrations of 1.0 μM and 10.0 μM are given in the table along with IC50 (nM) values for selected examples.

[1] = human TRPV3 expressing CHO cells, 2-APB 500 μM
[2] = 10.0 μM test compound, human TRPV3 expressing CHO cells, 2-APB 500 μM

Compound	inhibition at 1 µM [1]	inhibition at 10 µM [2]	IC50 [1]	Percentage inhibition at 1.0 μM [1]	Percentage inhibition at 10.0 μM [2]	Percentage inhibition at 10.0 μM
COc1cccc(/C=C/c2nc3sccn3c(=O)c2-c2ccccc2)c1OCC1CC1 [Example 2, 7-{(E)-2-[2-(Cyclopropylmethoxy)-3-methoxyphenyl]vinyl}-6-phenyl-5H-[1,3]thiazolo[3,2-a]pyrimidin-5-one]	10.4%	73.1%	1000 to 10000 nM	–	–	–
N#CCCCOc1cccc(/C=C/c2nc3sccn3c(=O)c2-c2ccc(OC(F)(F)F)cc2)c1OCC1CC1 [Example 65, 7-{(E)-2-[2-(Cyclopropylmethoxy)-3-(3-cyanopropoxy)phenyl]-1-ethenyl}-6-(4-trifluoromethoxyphenyl)-5H-[1,3]thiazolo[3,2-a]pyrimidin-5-one]	15.4%	22%	–	–	–	–
COc1cccc(/C=C/c2nc3sccn3c(=O)c2-c2ccc(C(C)=O)cc2)c1OCC1CC1 [Example 5]	–	–	–	60.3%	95.1%	–
COc1cc(/C=C/c2nc3sc4ccccc4n3c(=O)c2-c2ccc(C(F)(F)F)cc2)ccc1OCCCC#N [Example 94, 2-{(E)-2-[(3-Cyanopropoxy-3-methoxy)phenyl]-1-ethenyl}-3-(4-trifluoromethyl-phenyl)-4H-benzo[4,5][1,3]thiazolo-[3,2-a]pyrimidin-4-one]	–	–	–	5.84%	10.03%	–
COc1cccc(/C=C/c2nc3sc4ccccc4n3c(=O)c2-c2ccc(C#N)cc2)c1OCc1ccccn1 [Example 90]	–	–	–	51.24%	–	81.57%
COc1cccc(/C=C/c2nc3sccn3c(=O)c2-c2ccc(C#N)cc2)c1OCC1CCCCC1 [Example 19, 4-{7-[(E)-2-(2-Cyclohexylmethoxy-3-methoxy)phenyl-1-ethenyl]-5-oxo-5H-[1,3]-thiazolo[3,2-a]pyrimidin-6-yl}benzonitrile]	74.6%	88.4%	250 to 500 nM	–	–	–
COc1cccc(/C=C/c2nc3sccn3c(=O)c2-c2ccc(C(F)(F)F)cc2)c1OCCCC#N [Example 30]	–	–	–	45.2%	75.9%	–
COc1cccc(/C=C/c2nc3sccn3c(=O)c2-c2ccc(N(C)C)cc2)c1OCC(C)C [Example 41, 6-(4-Dimethylaminophenyl)-7-[(E)-2-(2-isobutoxy-3-methoxyphenyl)-1-ethenyl]-5H-[1,3]thiazolo[3,2-a]pyrimidin-5-one]	75.5%	84.5%	250 to 500 nM	–	–	–
COCCOc1c(/C=C/c2nc3sccn3c(=O)c2-c2ccc(C#N)cc2)cccc1OC [Example 14, 4-{7-[(E)-2-(3-Methoxy-2-(2-methoxyethoxy)phenyl]-1-ethenyl}-5-oxo-5H-[1,3]-thiazolo[3,2-a]pyrimidin-6-yl}benzonitrile]	41%	88.1%	–	–	–	–
COc1cccc(/C=C/c2nc3sccn3c(=O)c2-c2ccc(OC(F)(F)F)cc2)c1OCC(C)C [Example 51, 7-[(E)-2-(2-Isobutoxy-3-methoxyphenyl)-1-ethenyl]-6-[4-(trifluoromethoxy)phenyl]-5H-[1,3]thiazolo[3,2-a]pyrimidin-5-one]	89.1%	95.6%	< 250 nM	–	–	–
CCCCCOc1c(/C=C/c2nc3sccn3c(=O)c2-c2ccc(OC(F)(F)F)cc2)cccc1OC [Example 55, 7-[(E)-2-(3-Methoxy-2-pentyloxyphenyl)-1-ethenyl]-6-[4-(trifluoromethoxy)phenyl]-5H-[1,3]thiazolo[3,2-a]pyrimidin-5-one]	81.7%	92.8%	< 250 nM	–	–	–
COc1cccc(/C=C/c2nc3sccn3c(=O)c2-c2ccc(F)nc2)c1OCC1CC1 [Example 3]	–	–	–	20.1%	89.3%	–
CCOCCOc1c(/C=C/c2nc3sc4ccccc4n3c(=O)c2-c2ccc(OC(F)(F)F)cc2)cccc1OC [Example 97, 2-{(E)-2-[(2-Ethoxyethoxy)-3-methoxyphenyl]-1-ethenyl}-3-(4-trifluoromethoxy-phenyl)-4H-benzo[4,5][1,3]thiazolo-[3,2-a]pyrimidin-4-one]	20.2%	39.3%	–	–	–	–
COCCOc1c(/C=C/c2nc3sccn3c(=O)c2-c2ccc(OC(F)(F)F)cc2)cccc1OC [Example 73, 7-[(E)-2-{3-Methoxy-2-(2-methoxyethoxy)phenyl}-1-ethenyl]-6-[4-(trifluoromethoxy)-phenyl]-5H-[1,3]thiazolo[3,2-a]pyrimidin-5-one]	79.2%	94.9%	250 to 500 nM	–	–	–
COc1cccc(/C=C/c2nc3sccn3c(=O)c2-c2cccc(C(F)(F)F)c2)c1OCC1CC1 [Example 40, 7-[(E)-2-(2-Cyclopropylmethoxy-3-methoxyphenyl)-1-ethenyl]-6-[3-(trifluoromethyl)phenyl]-5H-[1,3]thiazolo[3,2-a]pyrimidin-5-one]	4.6%	31.3%	–	–	–	–
COc1cccc(/C=C/c2nc3sccn3c(=O)c2-c2ccc(C(F)(F)F)cc2)c1OCCC(C)C [Example 28, 7-[(E)-2-(2-Isopentyloxy-3-methoxyphenyl)-1-ethenyl]-6-[4-(trifluoromethyl)phenyl]-5H-[1,3]thiazolo[3,2-a]pyrimidin-5-one]	59.7%	85.3%	–	–	–	–
O=c1c(-c2ccc(OC(F)(F)F)cc2)c(/C=C/c2cccc(O)c2OCC2CC2)nc2sccn12 [Example 60]	–	–	–	41.32%	81.57%	–
COc1cccc(/C=C/c2nc3sccn3c(=O)c2-c2ccc(N(C)C)cc2)c1OCC1CC1 [Example 6, 6-(4-Dimethylaminophenyl)-7-[(E)-2-(2-cyclopropylmethoxy-3-methoxyphenyl]-1-ethenyl]-5H-[1,3]thiazolo[3,2-a]pyrimidin-5-one]	76%	95.3%	250 to 500 nM	–	–	–
COc1cccc(/C=C/c2nc3sc(Cl)cn3c(=O)c2-c2ccc(N(C)C)cc2)c1OCC(C)C [Example 81, 2-Chloro-6-[4-(dimethylamino)phenyl]-7-[(E)-2-(2-isobutoxy-3-methoxyphenyl)vinyl]-5H-[1,3]thiazolo[3,2-a]pyrimidin-5-one]	64.3%	78.5%	250 to 500 nM	–	–	–
COc1cccc(/C=C/c2nc3sccn3c(=O)c2-c2ccc(OC(F)F)cc2)c1OCC1CC1 [Example 48, 7-[(E)-2-(2-Cyclopropylmethoxy-3-methoxyphenyl)-1-ethenyl]-6-(4-difluoromethoxyphenyl]-5H-[1,3]thiazolo[3,2-a]pyrimidin-5-one]	80%	95.1%	< 250 nM	–	–	–
CCCCOc1c(/C=C/c2nc3sccn3c(=O)c2-c2ccc(OC(F)(F)F)cc2)cccc1OC [Example 57, 7-[(E)-2-(2-Butoxy-3-methoxyphenyl)-1-ethenyl]-6-[4-(trifluoromethoxy)phenyl]-5H-[1,3]thiazolo[3,2-a]pyrimidin-5-one]	79.4%	91.9%	< 250 nM	–	–	–
COc1cccc(/C=C/c2nc3sc4ccccc4n3c(=O)c2-c2ccc(OC(F)(F)F)cc2)c1OCC1CC1 [Example 95]	10.9%	23.7%	–	–	–	–
